Source: paper PMC2883612 (Journal of nuclear medicine : official publication, Society …, 2009)

What was measured:
[1] = Pharmacologic effects and safety tests in human subjects after PET; type: in vivo
TSPO [2] = conditions: rat model of neurodegeneration; cited from earlier work
[3] = Plasma metabolite analysis and plasma input function; type: in vivo; conditions: human; for metabolites in plasma radioactivity: 30 min after injection; for plasma clearance time constant: monoexponential fitting from 20 to 60 min
[4] = cited from earlier work
TSPO [5] = conditions: in vivo; cited from earlier work
TSPO [6] = target: TSPO (Homo sapiens, UniProt P30536); assay: Brain PET with arterial input, compartmental modeling; conditions: 1-tissue model, mean ± SD
Sequence of TSPO (Homo sapiens, UniProt P30536) (P30536 whole entry): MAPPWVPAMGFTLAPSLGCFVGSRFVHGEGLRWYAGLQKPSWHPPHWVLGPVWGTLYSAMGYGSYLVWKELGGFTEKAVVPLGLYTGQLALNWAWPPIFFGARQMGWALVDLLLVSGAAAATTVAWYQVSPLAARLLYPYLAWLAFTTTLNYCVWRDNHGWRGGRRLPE

CCN(CC)C(=O)Cc1c(-c2ccc(OC)cc2)nn2c(C)cc(C)nc12 [^11C-DPA-713, ^11C-N,N-diethyl-2-[2-(4-methoxyphenyl)-5,7-dimethyl-pyrazolo[1,5-a]pyrimidin-3-yl]-acetamide]
blood tests before and after the scan ([1]; healthy human subjects): no abnormalities or interval changes | side effects after the PET scans ([1]; healthy human subjects): No side effects were reported | pharmacologic effects ([1]; healthy human subjects, intravenous bolus): No pharmacologic effects were noted | 12-lead ECGs ([1]; within 1 wk before and after injection): no abnormalities or interval changes | specificity in discriminating between normal and lesioned brain, vs ^11C-R-PK11195 (TSPO [2]): greater specificity | metabolites in plasma radioactivity [3]: 20% | plasma clearance time constant [3]: 42 min | logP [4]: 2.4

CCC(C)N(C)C(=O)c1cc2ccccc2c(-c2ccccc2Cl)n1 (stereo not shown) [^11C-R-PK11195]
blocking effect on ^11C-DPA-713 brain uptake (TSPO [5]): potent blockade of brain uptake | K1 value (TSPO [6]; Caudate): 0.020 ± 0.012 (24.9) | VT value (TSPO [6]; Caudate): 0.25 ± 0.09 (23.1) | K1 value (TSPO [6]; Cerebellar cortex): 0.025 ± 0.016 (12.5) | VT value (TSPO [6]; Cerebellar cortex): 0.32 ± 0.08 (11.9) | K1 value (TSPO [6]; Frontal): 0.023 ± 0.013 (14.6) | VT value (TSPO [6]; Frontal): 0.33 ± 0.10 (13.9) | K1 value (TSPO [6]; Pons): 0.019 ± 0.016 (23.1) | VT value (TSPO [6]; Pons): 0.42 ± 0.13 (33.3) | K1 value (TSPO [6]; Putamen): 0.026 ± 0.015 (10.3) | VT value (TSPO [6]; Putamen): 0.34 ± 0.06 (9.5) | K1 value (TSPO [6]; Temporal): 0.016 ± 0.011 (22.0) | VT value (TSPO [6]; Temporal): 0.40 ± 0.08 (29.4) | K1 value (TSPO [6]; Thalamus): 0.025 ± 0.013 (12.0) | VT value (TSPO [6]; Thalamus): 0.42 ± 0.07 (11.9) | metabolites in plasma radioactivity [3]: 40% | plasma clearance time constant [3]: 37 min
